Laboratory results reported in patent US4731241A, “Percutaneous pharmaceuticals preparation for external use” (priority 1983, dated 1988).
Read-outs that look alike come from different tables or passages of the source.

Legend:
[1] = Text: Then, the present inventors attempted at a systematic classification of compounds which could contribute to the percutaneous absorption of molsidomine and performed a series of experiments.
[2] = type: in vivo, male SD-JCL rats; conditions: rat
Procedure: Five male SD-JCL rats with a mean body weight of 250 g were anesthetized with pentobarbital and the abdominal hairs were clipped with an electric clipper (20 cm^2 5×4 cm). Each of coating samples A though D was then coated on the clipped area. At 1, 2, 4 and 6 hours after application (till 8 hours for evaluation of sustained effect), 0.5 ml of venous blood was collected from the tail vain of each rat and the plasma concentration of molsidomine was determined by the following procedure.
In a mixture of 20 mg of lauric acid, which is a percutaneous absorption promotor according to this invention, and 177 mg of propylene glycol was dissolved 3 mg of clonidine to prepare a coating sample. Using this sample, a percutaneous absorption test was conducted in the same manner as Example 1. The plasma concentration of clonidine was determined by the following procedure.
The venous blood was centrifuged and the plasma was separated. A 0.2 ml of the plasma was extracted with 1 ml of 0.01 N NaOH and 5 ml of chloroform, and from 4 ml of the chloroform layer, the chloroform was evaporated. The residue was dissolved in 0.2 ml of a mixture of 0.05 M sodium acetate, acetonitrile and tetrahydrofuran (70:30:0.2, v/v), and 50 μl of this solution was subjected to liquid chromatography to determine the clonidine concentration. A column of μ-Bondapak C18 was employed. The evaluation of percutaneous absorption was carried out in the same manner as described in Example 1. […] Similar tests were conducted using oleic acid, lauryl alcohol, oleinamide and laurylamine as well but all of them were ineffective for clonidine as […].

[3] = cited from earlier work

## COC(=O)c1ccccc1O [methyl salicylate]
[1]
  promotion of percutaneous absorption of molsidomine: none of them proved meaningfully effective

## CCCCCCCCCCCCN [laurylamine]
[2]; percutaneous, clonidine
  effectiveness as percutaneous absorption promoter for clonidine: ineffective

## CCCCCCCC/C=C\CCCCCCCC(=O)O [oleic acid]
[2]; in vivo
  effectiveness as percutaneous absorption promoter for clonidine: ineffective

## CC(O)CO (centres unmarked) [propylene glycol]
[1]; added to molsidomine
  promotion of percutaneous absorption of molsidomine: none of them proved meaningfully effective

## CCOC(=O)[N-]c1cn(N2CCOCC2)n[o+]1 [molsidomine, N-ethoxycarbonyl-3-morpholinosydnonimine]
[3]; background
  side effects: few side effects
  vasodilator activity: excellent vasodilator activity
[3]; percutaneous route, alone
  percutaneous absorption of molsidomine administered alone: not well absorbed

## CCCCCCCCCCCC(=O)O [lauric acid]
[2]; percutaneous, clonidine
  effectiveness as percutaneous absorption promoter for clonidine: not effective

## O=C(O)c1ccccc1O [salicylic acid]
[1]; added to molsidomine
  promotion of percutaneous absorption of molsidomine: none of them proved meaningfully effective

## CCCCCCCCCCCCO [lauryl alcohol]
[2]; percutaneous, clonidine
  effectiveness as percutaneous absorption promoter for clonidine: ineffective

## OC[C@@H](O)[C@@H](O)[C@H](O)[C@@H](O)CO [sorbitol]
[1]
  promotion of percutaneous absorption of molsidomine: none of them proved meaningfully effective

## Clc1cccc(Cl)c1N=C1NCCN1 [clonidine]
[2]; 3 mg clonidine, 20 mg lauric acid, 177 mg propylene glycol, percutaneous
  clonidine detection in the blood: not detected

## OCC(O)CO [glycerin]
[1]; added to molsidomine
  promotion of percutaneous absorption of molsidomine: none of them proved meaningfully effective

## CCCCCCCC/C=C\CCCCCCCC(N)=O [oleinamide]
[2]; percutaneous, clonidine
  effectiveness as percutaneous absorption promoter for clonidine: ineffective
